The subject of this test is Aspergillus niger. Kind of test: Inhibition of CYP450-mediated tangeretin demethylation in Aspergillus niger ATCC 9142 assessed as relative activity at 0.5 mM.

Take `CC(C)(C(=O)c1cccnc1)c1cccnc1`: the relative activity came out at 40%.
Consider `CCCC(C(=O)OCCN(CC)CC)(c1ccccc1)c1ccccc1`, for which the relative activity stood at 0%.
For `Clc1ccc(COC(Cn2ccnc2)c2ccc(Cl)cc2Cl)c(Cl)c1` (centres undefined), the relative activity was 10%.
For `CC1=CC(=O)c2ccccc2C1=O` the value was 0%.

For the origin of these results see ChEMBL document CHEMBL1143729, “Biotransformation of polymethoxylated flavonoids: access to their 4'-O-demethylated metabolites” (J Nat Prod, 2007).
